The source made the active and inactive calls. The rule behind the calls is not given here.
Legend:
[1] = target: T1, Protein cereblon/Eukaryotic peptide chain release factor GTP-binding subunit ERF3A (Homo sapiens, UniProt Q96SW2+P15170); test: Molecular glue activity at CRBN/GSPT1 in human 22Rv1 cells assessed as induction of GSPT1 degradation at 50 nM preincubated with MLN4924 followed by compound addition and measured after 12 hrs by Western blot analysis; format: cell-based
Target sequence in this assay (P15170 whole entry, looked up, canonical isoform): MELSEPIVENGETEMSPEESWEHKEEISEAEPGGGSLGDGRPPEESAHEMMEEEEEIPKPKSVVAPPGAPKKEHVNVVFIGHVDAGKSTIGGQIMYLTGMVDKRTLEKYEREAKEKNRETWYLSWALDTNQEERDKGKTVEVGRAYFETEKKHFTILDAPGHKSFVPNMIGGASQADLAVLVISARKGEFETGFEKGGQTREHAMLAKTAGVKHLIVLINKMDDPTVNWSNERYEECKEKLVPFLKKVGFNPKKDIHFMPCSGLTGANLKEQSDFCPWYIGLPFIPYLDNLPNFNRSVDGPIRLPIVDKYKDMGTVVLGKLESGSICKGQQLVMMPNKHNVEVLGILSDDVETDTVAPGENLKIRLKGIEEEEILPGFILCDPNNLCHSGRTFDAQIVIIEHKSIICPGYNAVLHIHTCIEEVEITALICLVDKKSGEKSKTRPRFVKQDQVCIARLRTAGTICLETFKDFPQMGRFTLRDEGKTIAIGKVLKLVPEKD
Target sequence in this assay (Q96SW2 whole entry, looked up, canonical isoform): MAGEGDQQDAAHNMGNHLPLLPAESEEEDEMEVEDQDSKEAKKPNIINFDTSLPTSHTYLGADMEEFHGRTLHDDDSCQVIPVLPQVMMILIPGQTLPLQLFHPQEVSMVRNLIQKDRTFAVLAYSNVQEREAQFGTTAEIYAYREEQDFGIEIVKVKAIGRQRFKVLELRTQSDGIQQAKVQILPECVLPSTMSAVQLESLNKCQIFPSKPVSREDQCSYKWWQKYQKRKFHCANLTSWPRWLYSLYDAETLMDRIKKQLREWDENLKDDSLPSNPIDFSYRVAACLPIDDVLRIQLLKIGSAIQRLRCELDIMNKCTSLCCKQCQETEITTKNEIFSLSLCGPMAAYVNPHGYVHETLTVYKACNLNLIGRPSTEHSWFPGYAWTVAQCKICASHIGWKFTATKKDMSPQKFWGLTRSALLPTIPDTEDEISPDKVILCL

[2] = system: Protein cereblon/Androgen receptor (Homo sapiens), P10275+Q96SW2 [UNDEFINED MUTATION]; test: PROTAC activity at CRBN/Androgen receptor splice variant 7 in human 22Rv1 cells assessed as induction of AR-V7 degradation at 20 nM incubated for 36 hrs by Western blot analysis (reference value: 0%); format: cell-based
LNCaP [3] = test: Antitumor activity against human LNCaP cells xenografted in NOD SCID male mouse model assessed as tumor growth inhibition at 20 mg/kg, po administered daily for 26 days relative to control; format: functional; details: 624 h, time 26 day, read-out: TGI
[4] = system: Protein cereblon/Androgen receptor (Homo sapiens), P10275+Q96SW2 [UNDEFINED MUTATION]; test: PROTAC activity at CRBN/Androgen receptor splice variant 7 in human 22Rv1 cells assessed as induction of AR-V7 degradation at 50 nM preincubated with MLN4924 followed by compound addition and measured after 12 hrs by Western blot analysis; format: cell-based
[5] = target: T2, Protein cereblon/Androgen receptor (Homo sapiens, UniProt P10275+Q96SW2); test: PROTAC activity at CRBN/AR in human LNCaP cells assessed as induction of AR degradation by measuring maximal efficacy incubated for 24 hrs by Western blot analysis relative to control; format: cell-based
[6] = target: T2, Protein cereblon/Androgen receptor; test: Binding affinity to CRBN/AR in human 22Rv1 cells assessed as ternary complex formation incubated for 6 hrs by co-immunoprecipitation based Western blot analysis; format: cell-based
[7] = target: T1, Protein cereblon/Eukaryotic peptide chain release factor GTP-binding subunit ERF3A; test: Molecular glue activity at CRBN/GSPT1 in human 22Rv1 cells assessed as induction of GSPT1 degradation at 50 uM preincubated with thalidomide followed by compound addition and measured after 12 hrs by Western blot analysis; format: cell-based
Target sequence in this assay (P15170 whole entry, looked up, canonical isoform): as the sequence (P15170 whole entry, looked up, canonical isoform) above
Target sequence in this assay (Q96SW2 whole entry, looked up, canonical isoform): as the sequence (Q96SW2 whole entry, looked up, canonical isoform) above

DU-145 = test: Antiproliferative activity against AR-independent human DU-145 cells assessed as cell growth inhibition incubated for 72 hrs by Celltiter-lumi luminescent cell viability assay; format: functional, cell-based; details: DU-145, 72 h
CWR22R [8] = test: Cell cycle arrest in human 22Rv1 cells assessed as accumulation of cells at G1 phase at 1 nM incubated for 24 hrs by flow cytometric analysis (reference value: 49.7 %); format: functional
[9] = system: Protein cereblon/Androgen receptor (Homo sapiens), P10275+Q96SW2 [UNDEFINED MUTATION]; test: PROTAC activity at CRBN/Androgen receptor splice variant 7 in human VCaP cells assessed as induction of AR-V7 degradation by measuring maximal efficacy incubated for 24 hrs by Western blot analysis relative to control; format: cell-based
[10] = target: T1, Protein cereblon/Eukaryotic peptide chain release factor GTP-binding subunit ERF3A; test: Molecular glue activity at CRBN/GSPT1 in human 22Rv1 cells assessed as induction of GSPT1 degradation at 0.01 uM incubated for 24 hrs by Western blot analysis relative to control; format: cell-based
Target sequence in this assay (P15170 whole entry, looked up, canonical isoform): as the sequence (P15170 whole entry, looked up, canonical isoform) above
Target sequence in this assay (Q96SW2 whole entry, looked up, canonical isoform): as the sequence (Q96SW2 whole entry, looked up, canonical isoform) above

[11] = Cmax in male ICR mouse at 2 mg/kg, iv by LC-MS/MS analysis; format: ADME, organism-based; details: in vivo
[12] = target: T2, Protein cereblon/Androgen receptor; test: PROTAC activity at CRBN/AR in human LNCaP cells assessed as induction of AR degradation at 20 nM by Western blot analysis; format: cell-based; details: time 1-36 hrs
CWR22R [13] = test: Effect on androgen receptor splice variant 7 mRNA expression in human 22Rv1 cells at 1 to 10 nM incubated for 24 hrs by RT-PCR analysis; format: functional, cell-based; details: dose 1-10 nM
[14] = target: T1, Protein cereblon/Eukaryotic peptide chain release factor GTP-binding subunit ERF3A; test: Molecular glue activity at CRBN/GSPT1 in human LNCaP cells assessed as induction of GSPT1 degradation incubated for 24 hrs by Western blot analysis; format: cell-based
[15] = system: Protein cereblon/Androgen receptor (Homo sapiens), P10275+Q96SW2 [UNDEFINED MUTATION]; test: Induction of AR-V7 degradation in human 22Rv1 cells transfected with CRBN siRNA at 30 nM incubated for 24 hrs by Western blot analysis; format: cell-based
[16] = target: T2, Protein cereblon/Androgen receptor; test: PROTAC activity at CRBN/AR in human Enzalutamide-resistant VCaP cells assessed as induction of androgen receptor degradation at 1 to 300 nM by Western blot analysis; format: cell-based; details: dose 1-300 nM
[17] = target: T1, Protein cereblon/Eukaryotic peptide chain release factor GTP-binding subunit ERF3A; test: In vivo molecular glue activity at CRBN/GSPT1 in male NOD SCID mouse model xenografted with human LNCaP cells assessed as reduction in GSPT1 level in tumor at 20 mg/kg, po administered daily for 26 days by Western blot analysis; format: functional, organism-based; details: time 26.0 day
Target sequence in this assay (P15170 whole entry, looked up, canonical isoform): as the sequence (P15170 whole entry, looked up, canonical isoform) above
Target sequence in this assay (Q96SW2 whole entry, looked up, canonical isoform): as the sequence (Q96SW2 whole entry, looked up, canonical isoform) above

[18] = target: T1, Protein cereblon/Eukaryotic peptide chain release factor GTP-binding subunit ERF3A; test: Molecular glue activity at CRBN/GSPT1 in human 22Rv1 cells assessed as induction of GSPT1 degradation at 20 nM incubated for 18 hrs by Western blot analysis (reference value: 0 %); format: cell-based
Target sequence in this assay (P15170 whole entry, looked up, canonical isoform): as the sequence (P15170 whole entry, looked up, canonical isoform) above
Target sequence in this assay (Q96SW2 whole entry, looked up, canonical isoform): as the sequence (Q96SW2 whole entry, looked up, canonical isoform) above

[19] = target: T2, Protein cereblon/Androgen receptor; test: PROTAC activity at CRBN/AR in human 22Rv1 cells assessed as decrease in PSA mRNA level at 1 to 3 nM incubated for 24 hrs by qRT-PCR analysis; format: cell-based; details: dose 1-3 nM
LNCaP [20] = test: Antiproliferative activity against AR-dependent human LNCaP cells assessed as cell growth inhibition incubated for 72 hrs by Celltiter-lumi luminescent cell viability assay; format: functional, cell-based
[21] = target: T1, Protein cereblon/Eukaryotic peptide chain release factor GTP-binding subunit ERF3A; test: Molecular glue activity at CRBN/GSPT1 in human VCaP cells assessed as induction of GSPT1 degradation at 50 nM preincubated with MG132 followed by compound addition and measured after 12 hrs by Western blot analysis; format: cell-based
Target sequence in this assay (P15170 whole entry, looked up, canonical isoform): as the sequence (P15170 whole entry, looked up, canonical isoform) above
Target sequence in this assay (Q96SW2 whole entry, looked up, canonical isoform): as the sequence (Q96SW2 whole entry, looked up, canonical isoform) above

[22] = system: Protein cereblon/Androgen receptor (Homo sapiens), P10275+Q96SW2 [UNDEFINED MUTATION]; test: PROTAC activity at CRBN/Androgen receptor splice variant 7 in human 22Rv1 cells assessed as induction of AR-V7 degradation at 20 nM incubated for 2 hrs by Western blot analysis (reference value: 0%); format: cell-based
[23] = target: T1, Protein cereblon/Eukaryotic peptide chain release factor GTP-binding subunit ERF3A; test: Molecular glue activity at CRBN/GSPT1 in human VCaP cells assessed as induction of GSPT1 degradation incubated for 24 hrs by Western blot analysis; format: cell-based
[24] = target: T1, Protein cereblon/Eukaryotic peptide chain release factor GTP-binding subunit ERF3A; test: Molecular glue activity at CRBN/GSPT1 in human Enzalutamide-resistant VCaP cells assessed as induction of GSPT1 degradation at 1 to 300 nM by Western blot analysis; format: cell-based; details: dose 1-300 nM
[25] = target: T1, Protein cereblon/Eukaryotic peptide chain release factor GTP-binding subunit ERF3A; test: Molecular glue activity at CRBN/GSPT1 in human 22Rv1 cells assessed as induction of GSPT1 degradation at 20 nM incubated for 2 hrs by Western blot analysis (reference value: 0 %); format: cell-based
[26] = target: T1, Protein cereblon/Eukaryotic peptide chain release factor GTP-binding subunit ERF3A; test: Molecular glue activity at CRBN/GSPT1 in human LNCaP cells assessed as induction of GSPT1 degradation at 20 nM by Western blot analysis; format: cell-based; details: time 1-36 hrs
[27] = target: T2, Protein cereblon/Androgen receptor; test: PROTAC activity at CRBN/AR in human LNCaP cells assessed as decrease in PSA protein level incubated for 24 hrs by Western blot analysis; format: cell-based; details: dose 1-100 nM
[28] = system: Protein cereblon/Androgen receptor (Homo sapiens), P10275+Q96SW2 [UNDEFINED MUTATION]; test: PROTAC activity at CRBN/Androgen receptor splice variant 7 in human 22Rv1 cells assessed as induction of AR-V7 degradation at 0.01 uM incubated for 24 hrs by Western blot analysis relative to control; format: cell-based
CWR22R [29] = test: Induction of apoptosis in human 22Rv1 cells assessed as increase in cleaved PARP expression incubated for 24 hrs by Western blot analysis; format: functional, cell-based; details: dose 1-30 nM
[30] = target: T1, Protein cereblon/Eukaryotic peptide chain release factor GTP-binding subunit ERF3A; test: Molecular glue activity at CRBN/GSPT1 in human 22Rv1 cells assessed as induction of GSPT1 degradation incubated for 24 hrs by Western blot analysis; format: cell-based
[31] = system: Protein cereblon/Androgen receptor (Homo sapiens), P10275+Q96SW2 [UNDEFINED MUTATION]; test: Binding affinity to CRBN/AR-V7 in human 22Rv1 cells assessed as ternary complex formation incubated for 6 hrs by co-immunoprecipitation based Western blot analysis; format: cell-based

T2 sequence (P10275 whole entry, looked up): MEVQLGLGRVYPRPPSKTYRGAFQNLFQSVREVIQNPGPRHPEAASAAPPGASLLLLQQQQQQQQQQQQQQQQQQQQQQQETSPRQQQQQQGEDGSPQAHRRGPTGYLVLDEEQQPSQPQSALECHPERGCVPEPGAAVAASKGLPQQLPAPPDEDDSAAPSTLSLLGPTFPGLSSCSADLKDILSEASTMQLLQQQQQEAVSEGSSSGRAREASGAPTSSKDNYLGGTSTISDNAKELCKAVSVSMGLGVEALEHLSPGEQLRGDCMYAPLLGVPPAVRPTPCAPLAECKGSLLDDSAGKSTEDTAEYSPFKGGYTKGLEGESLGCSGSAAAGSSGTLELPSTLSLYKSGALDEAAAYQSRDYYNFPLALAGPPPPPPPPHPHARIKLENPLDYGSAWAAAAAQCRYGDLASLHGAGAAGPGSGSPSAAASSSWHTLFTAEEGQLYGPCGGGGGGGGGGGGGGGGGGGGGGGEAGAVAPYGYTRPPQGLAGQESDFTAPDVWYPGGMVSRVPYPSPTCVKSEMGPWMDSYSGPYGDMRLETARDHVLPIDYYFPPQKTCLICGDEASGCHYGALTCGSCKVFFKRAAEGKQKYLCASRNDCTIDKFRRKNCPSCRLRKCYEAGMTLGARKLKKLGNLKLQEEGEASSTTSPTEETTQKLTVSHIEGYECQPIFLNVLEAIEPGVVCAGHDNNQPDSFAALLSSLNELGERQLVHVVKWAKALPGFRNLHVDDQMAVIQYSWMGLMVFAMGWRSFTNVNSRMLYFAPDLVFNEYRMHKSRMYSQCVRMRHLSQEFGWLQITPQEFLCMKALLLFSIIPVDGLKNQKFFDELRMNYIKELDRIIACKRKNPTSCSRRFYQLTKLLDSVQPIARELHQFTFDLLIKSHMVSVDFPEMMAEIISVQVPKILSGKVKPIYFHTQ
T2 sequence (Q96SW2 whole entry, looked up): as the sequence (Q96SW2 whole entry, looked up, canonical isoform) above
Protein cereblon/Androgen receptor (Homo sapiens), P10275+Q96SW2 [UNDEFINED MUTATION], sequence (P10275 whole entry, looked up, stated change not applied, canonical isoform): as the sequence (P10275 whole entry, looked up) above
Protein cereblon/Androgen receptor (Homo sapiens), P10275+Q96SW2 [UNDEFINED MUTATION], sequence (Q96SW2 whole entry, looked up, stated change not applied, canonical isoform): as the sequence (Q96SW2 whole entry, looked up, canonical isoform) above

## COc1ccc(C(C)(C)c2cc(Cl)c(OCC3CCN(C(=O)CCCCCNc4ccc5c(c4)C(=O)N(C4CCC(=O)NC4=O)C5=O)CC3)c(C#N)c2)cc1 (stereo not given)
[1]
  Activity: inactive
[2]
  Activity: 98.3%
LNCaP [3]
  inhibition in vivo at 20 mg/kg: 60%
[4]
  Activity: inactive
[5]
  Emax: 78.7%
[6]
  Activity: Active
[7]
  Activity: inactive
DU-145
  IC50: 882 nM
CWR22R [8]
  Activity: 50.3%
[9]
  Emax: 77.9%
[10]
  Activity: 93.9%
[11]
  Cmax: 1120 ng/mL
[12]
  Activity: Time-dependent-effect
CWR22R [13]
  Activity: Minimal_effect
[14]
  Activity: Dose-dependent-effect
  DC50: 0.9 nM
[15]
  Activity: inactive
[16]
  Activity: Active
[17]
  Activity: Active
[18]
  Activity: 98.4%
[19]
  Activity: Active
LNCaP [20]
  IC50: 2.8 nM
[21]
  Activity: inactive
[22]
  Activity: 21.8%
[23]
  Activity: Dose-dependent-effect
  DC50: 0.6 nM
[24]
  Activity: Active
[25]
  Activity: 74.6%
[26]
  Activity: Time-dependent-effect
[27]
  Activity: Dose-dependent-effect
[28]
  Activity: 65.7%
CWR22R [29]
  Activity: Dose-dependent-effect
[30]
  Activity: Dose-dependent-effect
  DC50: 1.2 nM
[31]
  Activity: Active
